According to patent publication US11040949B2, “Compounds affecting pigment production and methods for treatment of bacterial diseases” (Versitech Limited, priority 2017, dated 2021):

How the values were obtained:
[1] = biological target: 4,4-diapophytoene desaturase (CrtN) (Staphylococcus aureus, UniProt O07855); details: reference [5]; cited from earlier work
S. aureus USA300 = experiment: In vitro staphyloxanthin production inhibition by NP-16 analogues; format: cell-based, Staphylococcus aureus; details: S. aureus USA300, methanol extract OD 450 nm, 300 nM to 700 nM
Experimental: Evaluation of NP-16 analogues in Staphyloxanthin production
The in vitro pigment inhibition studies were performed by S. aureus USA300 cultured in BHI with or without the presence of inhibitor compounds at 37° C. and 250 rpm for 36-48 hours. The bacteria were washed twice with PBS prior to the staphyloxanthin purification with methanol. The OD of the extracts were monitor at 450 nm using DTX880 multi-plate reader spectrophotometer (Beckman). The concentration range tested for the compounds were between 300 nM to 700 nM, and control groups were added with equal volume of DMSO.
The cytotoxicity of NP-16 and some of its analogues was tested against Raw 264.7 cells, and the cell tolerance of each compounds were documented in Table 3. Along with the in vitro staphyloxanthin production of the NP-16 analogues were being tested, the compounds can exert staphyloxanthin production inhibition. The staphyloxanthin from the overnight-cultured bacteria were extracted with methanol and quantified in via spectrophotometry. The results were presented in relative ratio to NP-16 in both the inhibition ratio as well as the TC50 (concentration for decreasing cell viability by 50%) in Table 3 (sample names correspond to those listed in Table 1).

[2] = tested on: non-pigmented strain RN6390; experiment: Hydrogen peroxide susceptibility assay, non-pigmented strain; format: cell-based, Staphylococcus aureus; details: non-pigmented strain RN6390, with or without NP16
Experimental: (§1) Hydrogen Peroxide Susceptibility Assay
(§2) S. aureus was grown in BHI with or without NP16 (40 μM). After 2 days, bacteria were washed twice in PBS, diluted to a concentration of 1×10^7 CFUs per 100 μl reaction mixture in a 96-well plate. Hydrogen peroxide (H2O2) in PBS was added to a 440 mM final concentration, and the plate was incubated for 1 hr at 37° C. with shaking. The reaction was stopped by the addition of 1,000 U/ml of exogenous catalase (Sigma-Aldrich, St. Louis, Mo.), and bacterial viability was assessed by plating dilutions on BHI agar plates.

[3] = tested on: clinical isolate S. aureus strain AE052; experiment: Murine intraperitoneal infection model, kidney bacterial loads; format: in vivo, BALB/c mice
Experimental: (§3) For other S. aureus sub-type, eight- to ten-week-old female BALB/c mice were injected intraperitoneally (i.p) with 4×10^8 CFUs of early stationary phase S. aureus COL. After 3 d, animals were euthanized, the liver and spleen were isolated, homogenized in PBS, and plated on to obtain viable counts. For the treatment study, mice were randomized into two groups at the start of the experiment and administered, i.p., either 0.35 mg of NP16 or PBS with 5% Tween-80 as a control, twice per day, starting on d −1 to d 2 (a total of eight doses for each). Intraperitoneal challenge with 4×10^8 CFUs of early stationary phases S. aureus COL was performed on d 0. The mice were sacrificed on d 3 for enumeration of bacterial CFUs in liver and spleen homogenates.
For the clinical isolate S. aureus strain AE052, all operations were similar to those used for the COL strain, except 10^8 CFUs of early stationary phase bacteria were used in the infection model, and kidneys were collected for monitoring bacterial loads. Statistics were performed using the Student's t-test (GraphPad Prism).
(§4) With the same intraperitoneal challenge used in FIGS. 3a, 3b and 3e, one group of mice (n=14) was treated with 0.35 mg of NP16 twice per day (days −1, 0, 1 and 2), and a second group (n=12) with a vehicle control.

S. aureus COL [4] = experiment: Hydrogen peroxide susceptibility assay; format: cell-based, Staphylococcus aureus; details: grown with NP16 (40 μM); 440 mM H2O2, 1 hr
Experimental: as §1, §2

S. aureus COL [5] = experiment: Bactericidal activity of human polymorphonuclear leukocytes; format: cell-based, Staphylococcus aureus; details: NP16-treated COL vs COL
Experimental: Bactericidal Activity of Polymorphonuclear Leukocytes
The killing of S. aureus by human polymorphonuclear leukocytes (PMNs) was determined as previously described, with some modifications. Briefly, PMNs (10^6) were mixed with ˜10^7 opsonized S. aureus bacteria MOI=10 in 24-well tissue culture plates. After centrifuged at 380 g for 8 min, plates were incubated at 37° C. for up to 1.5 h. PMNs were lysed with saponin (20 min on ice) and plated on BHIA plates. The percent survival was calculated by normalized with time zero. Statistics were performed with the Student's t-test (GraphPad Prism).

[6] = biological target: T1, 4,4-diapophytoene desaturase (CrtN) (Staphylococcus aureus, UniProt Q99R76); experiment: CrtN enzymatic assay; format: biochemical, S. aureus
T1 construct: made in house; host or cells: E. coli Rosetta (DE3)
T1 sequence (Q99R76 whole entry): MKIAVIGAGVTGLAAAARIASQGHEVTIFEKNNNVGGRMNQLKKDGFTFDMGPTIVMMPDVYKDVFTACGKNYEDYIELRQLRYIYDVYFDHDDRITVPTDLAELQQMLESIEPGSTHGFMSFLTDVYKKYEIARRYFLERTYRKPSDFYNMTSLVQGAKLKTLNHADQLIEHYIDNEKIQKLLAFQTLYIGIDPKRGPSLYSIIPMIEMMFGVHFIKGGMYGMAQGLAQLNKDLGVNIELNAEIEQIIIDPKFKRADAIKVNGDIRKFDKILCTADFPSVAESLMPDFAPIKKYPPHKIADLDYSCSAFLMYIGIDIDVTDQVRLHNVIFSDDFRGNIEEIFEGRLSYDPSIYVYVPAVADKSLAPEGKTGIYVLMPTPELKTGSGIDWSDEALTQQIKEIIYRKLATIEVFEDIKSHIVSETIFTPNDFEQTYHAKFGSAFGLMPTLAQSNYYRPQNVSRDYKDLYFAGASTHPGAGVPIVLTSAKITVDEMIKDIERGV
Experimental: crtN Expression, Purification and Enzymatic Assay
CrtN with a histidine-maltose binding protein (MBP) tag was overexpressed in E. coli Rosetta (DE3) cells. A 10 ml overnight culture was transferred into 1 L of LB medium supplemented with 100 μg/ml ampicillin. Induction was carried out with 1 mM IPTG for 12 hours at 16° C. at an OD of 0.6 at 600 nm. The cell lysate was loaded onto a Ni-NTA column, and CrtN was eluted using a 75-ml linear gradient of 0-0.4 M imidazole in 50 mM sodium phosphate buffer, with 400 mM sodium chloride, pH 6.6. The collected fractions were analysed by SDS-PAGE to confirm the peak for MBP-CrtN. The target peak fractions were concentrated and the buffer was exchanged to loading buffer without imidazole using a PD-10 column (GE Healthcare). The collected solution was treated with TEV protease at 4° C. overnight. The protein sample was applied to a maltose column, and the flow-through was collected as native CrtN protein. For enzyme assay, 10 μg of purified CrtN was incubated with 100 μl of 4,4′-diapophytoene liposomes (containing 5 nmol of 4,4′-diapophytoene), 150 μM FAD and buffer II (20 mM phosphate buffer pH 8.0, 100 mM NaCl) in a total volume of 660 μl at 37° C. for 2 h (standard assay). The reaction was stopped by adding 1 volume of CHCl3: MeOH (2:1, v/v). Followed by mixing, the sample was centrifuged at 16,000 g for 10 min. […]

MDCK cells = experiment: Cytotoxic activity on MDCK cells; format: cell-based
S. aureus COL [7] = experiment: Murine intraperitoneal infection model, liver and spleen CFUs; format: in vivo, BALB/c mice
Experimental: as §3, §4

USA300 = experiment: Minimum inhibitory concentration (MIC) test; format: cell-based; details: Staphylococcus aureus
Experimental: Minimum Inhibitory Concentration (MIC) Tests
MIC was determined by inoculating 5×10^4 S. aureus cells in 100 μl BHI medium in 96-well plates with a serial dilution of antibiotics.

[8] = tested on: methicillin-resistant S. aureus (MRSA); experiment: MRSA skin infection, wound closure; format: in vivo, mice; details: Day 7
Experimental: FIG. 11B are photos from the top view of mice with skin infection caused by MRSA before (at Day 0) and after different treatments (at Day 7): top left received 2% mupirocin via topical BID for 7 days; top right received 100 mg/kg linezolid via oral BID for 7 days; bottom received 30 mg/kg IM032 via oral BID for 7 days.
Visual wound healing/closure in different treatment groups of mice can be observed in FIG. 11B.

Chain of 4,4-diapophytoene desaturase (CrtN) (Staphylococcus aureus, UniProt O07855) (O07855 whole entry): as the sequence (Q99R76 whole entry) above

c1ccc(Nc2ccccc2)cc1 [Diphenylamine]
inhibitor of CrtN, level [1]: high micromolar level

O=C(/C=C/c1ccccc1)Nc1ccc(S(=O)(=O)N2CCCC2)cc1 [NP16, 3-phenyl-N-[4-(1-pyrrolidinylsulfonyl)-phenyl]acrylamide]
Relative ratio to NP16 based on inhibition ratio (S. aureus USA300): 1 | susceptibility to hydrogen peroxide killing [2]: susceptibility was similar irrespective of NP16 treatment | bacterial counts in the kidneys ([3]; 0.35 mg twice per day i.p., 72 hours, vs control group, P<0.001): significantly lower | mice below the detection threshold (kidneys) ([3]; n=10, versus 2 of 10 in the control group): 6 of 10 | decrease in surviving bacteria ([3]; treatment group infected with AE052): 98% | susceptibility to hydrogen peroxide killing (S. aureus COL [4]): increase in the susceptibility of the pathogen to hydrogen peroxide killing | survival in human neutrophils (S. aureus COL [5]): COL survived significantly better than RN6390 and NP16-treated COL | inhibition of CrtN [6]: inhibitor for CrtN | effect on the growth of MDCK cells (MDCK cells): no effect on the growth of MDCK cells | bacterial counts in the livers and spleens (S. aureus COL [7]; 0.35 mg twice per day i.p. (days -1, 0, 1, 2), 72 hours, vs control group, P<0.01): significantly lower | decrease in surviving bacteria (S. aureus COL [7]; treatment group infected with COL): 98% | MIC (USA300): > 500 µM

C/C(=C\C(=O)OCCCCCCCCC(=O)O)C[C@@H]1OC[C@H](C[C@@H]2O[C@H]2[C@@H](C)[C@H](C)O)[C@@H](O)[C@H]1O [Mupirocin, mupirocin, reference compound]
percentage of wound closure ([8]; 2% topical twice a day): 43.2%

CC(=O)NC[C@H]1CN(c2ccc(N3CCOCC3)c(F)c2)C(=O)O1 [Linezolid, linezolid, reference compound]
percentage of wound closure ([8]; 100 mg/kg oral twice a day): 48.4%
